How the values were obtained:
Format in all cases: cell-based
PD-L1 [1] = test: Total PD-L1 expression by Western blotting in cancer cell lines; details: 12.5 μM Compound A
Description: (§1) Experimental Overview. Programmed death-ligand 1 (PD-L1) is a type 1 transmembrane protein that plays a major role in suppressing the innate and adaptive arms of the immune system. The PD-1/PD-L1 pathway represents an adaptive immune resistance mechanism exerted by tumor cells in response to endogenous immune anti-tumor activity and is a well-established therapeutic target in cancer therapy. Cancer cells were treated with vehicle control (DMSO), the fluoropyrimidine FUdR (also known as floxuridine) alone, Compound A alone, or the combination of Compound A and FUdR, and the expression level of the immune checkpoint protein PD-L1 was measured by both Western blotting and flow cytometry and compared to control. Cell lines assayed for total PD-L1 protein expression by Western blotting included, pancreatic cancer, PANC-1; non-small cell lung cancer, H460; colorectal cancer, HCT116; breast cancer, MCF-7; melanoma, MeWo. Two cell lines were advanced to analyze cell surface PD-L1 by flow cytometry, MCF-7 and PANC-1.
Western Blotting. Cells were cultured in the presence of the indicated concentrations of Compound A, 5-fluorodeoxyuridine (FUdR), or a combination of both in a P100 cell culture dishes for 12 or 24 hours. At the conclusion of specified time-points, cells were scraped in PBS containing NaF and Na3VO4, pelleted by centrifugation, washed with PBS and pelleted again. […] The concentration of the isolated supernatant was determined by BCA assay on a CLARIOstar microplate reader and the required volume of whole-cell lysate was denatured by the addition of Sample Buffer, Laemmli 2×Concentrate followed by boiling at 95° C. for 5 min. […] Images were analyzed in ImageJ to obtain PD-L1 relative density values which were normalised to relative density of loading control. Once the primary image acquisition was complete, the pre-cast gels and corresponding immunoblots were further imaged for total protein as a quality control measure following a UV-induced 1-minute reaction to produce fluorescence. […]

PD-L1 [2] = test: Cell-surface PD-L1 expression by flow cytometry; details: 12.5 μM Compound A, 1 μM FUdR; 24 hours
Description: as §1
Cell Surface Flow Cytometry. Cells were seeded in 6-well plates and permitted to adhere overnight. Media was removed and replaced with media containing the indicated concentrations of Compound A, FUdR or a combination of both, positive control cells were treated with IFNγ. Cells were then incubated for 24 hours. At the conclusion of specified timepoints, cells were washed with PBS and removed from the plates using trypsin-EDTA. Cells were counted and 300,000 cells were washed in staining buffer and incubated in PD-L1 or IgG antibody on ice for 40 minutes. Cells were then washed in staining buffer twice and finally resuspended in 300 μL of staining buffer and transferred to BD Falcon™ round-bottom tube. Dot plot for FSC v SSC were used to gate cell population and doublets were excluded on FL-4 histogram height versus area/width. IgG isotype control stained sample was used to identify the positively stained population. Percentage positive population and median fluorescent intensity values were exported and analyzed in Microsoft Excel and GraphPad Prism 6. Statistical analysis consisted of one-way ANOVA with Tukey's multiple comparisons testing.

HMGB1 = test: Extracellular release of HMGB1 into cell culture media by ELISA; details: 12.5 μM Compound A, 1 μM FUdR; 24 hours
Description: Experimental Overview. High mobility group box 1 (HMGB1) is a nuclear non-histone chromatin-binding protein. The release of HMGB1 by immune cells or severely damaged cancer cells functions as an immunostimulatory chemokine and is a well-known damage-associated molecular pattern (DAMP). The release of HMGB1 during cell death is characteristic of immunogenic cell death, a sub-class of cell death that results in the potent stimulation of the innate and subsequently the stimulation of adaptive immune responses. HMGB1 functions as a pro-inflammatory cytokine-like factor and can form hetero-complexes with other immune regulators. HMGB1 binds to TLRs, RAGE and CXCR4 on immune cells stimulating chemotaxis and the secretion of pro-inflammatory factors. HCT116 colon carcinoma and JU77 mesothelioma cells were treated with vehicle control (DMSO), 12.5 μM Compound A, 1 μM FUdR, or the combination of 12.5 μM Compound A and 1 μM FUdR for 24 hours and the release of HMGB1 into the extracellular culture media was measured by ELISA.
Cell Line Model Selection and Preparation. The HCT116 cancer cell line was purchased from ATCC. JU77 cell line was a kind gift from Dr Dan Longley, QUB. Cells were cultured and expanded in humidified incubators at 5% CO2 until sufficient cells were available.
Drug Preparation and Treatments. All drugs/compounds were prepared freshly in cell culture media from 50 mM frozen stocks prior to treatment. Cells were seeded in 6-well culture dishes and allowed to adhere overnight before treatment with Compound A, FUdR, or Compound A in combination with FUdR. Additional wells were treated with doxorubicin to act as a positive inducer of HMGB1. Twenty-four hours after treatment, the media was aspirated and centrifuged (2500 rpm, 5 min, at 4° C.) to remove any cellular debris. The supernatant was collected for immediate processing or stored at −80° C. for later assay.
Detection of HMGB1 Release. HMGB1 was quantified using the HMGB1 ELISA kit (ST51011, IBL International). Enzyme conjugate (HMGB1 conjugated to peroxidase) and standard were reconstituted in 12 ml enzyme conjugate diluent, and 1 ml diluent buffer respectively and aliquots frozen at −80° C. until required. All reagents and samples were brought to room temperature immediately prior to use. A standard curve was prepared for the high sensitive detection range (0.313-10 ng/ml). 50 μl diluent buffer was pipetted into each well of the microtiter plate. 50 μl of standard, sample, positive control or negative control (diluent buffer) was pipetted, in duplicate, into respective wells as determined by the plate set up. The plate was covered with adhesive foil and incubated at 37° C. for 20 to 24 hours on an orbital shaker (450 rpm). Following the incubation period the incubation solution was discarded and the plate washed (5×300 μl per well). Excess wash buffer was removed by inversion on to a paper towel. 100 μl enzyme conjugate was added to each well, the plate covered with adhesive foil and incubated at 25° C. for 2 hours on an orbital shaker (450 rpm). Following the incubation the solution was discarded and the plate washed as before. Fresh color solution was prepared immediately prior to use and 100 μl added to each well using a multichannel pipette. The plate was then incubated for 30 minutes at room temperature. The color reaction was stopped by pipetting 100 μl of stop reagent to each well using a multichannel pipette. The plate was shaken gently to mix and the backs of the wells were cleaned using a lint-free tissue. The concentration of HMGB1 was determined on a CLARIOstar microplate reader by measuring the absorbance at 450 nm using a reference reading at 640 nm. Data was exported to Microsoft Excel for processing and statistical analysis consisting of one-way ANOVA with Tukey's Multiple Comparisons Test was performed in GraphPad Prism 6.

calreticulin = test: Cell surface calreticulin by flow cytometry; details: 6.25 μM Compound A, 1 μM FUdR, 500 nmol/L doxorubicin; 4 hours
Description: Experimental Overview. Tumor cells undergoing immunogenic cell death (ICD) emit damage associated molecular patterns (DAMPs). ICD is a sub-class of cell death that results in the potent stimulation of the innate immune system and subsequently the stimulation of adaptive immune responses. The cell surface expression of calreticulin during cell death is one of several established DAMPs characteristic of immunogenic cell death. Calreticulin translocates from the endoplasmic reticulin to the cell membrane where it functions as a potent “eat me” signal for macrophages and dictates tumor antigen transfer and therefore the immunogenicity of cancer cell death. PANC1 pancreatic carcinoma cells were treated with vehicle control (DMSO), 6.25 μM Compound A, 1 μM FUdR, or the combination of 6.25 μM Compound A and 1 μM FUdR for 4 hours and the concentration of cell surface calreticulin was deteremined by flow cytometry.
Cell Line Model Selection and Preparation. The PANC1 pancreatic cancer cell line was purchased from ATCC. Cells were cultured and expanded in humidified incubators at 5% CO2 until sufficient cells were available.
Drug Preparation and Treatments. All drugs/compounds were prepared freshly in cell culture media from 50 mM frozen stocks prior to treatment. Cells were seeded in 6-well plates and permitted to adhere overnight. Media was removed and replaced with media containing 6.25 μM Compound A, 1 μM FUdR or a combination of 6.25 μM Compound A and 1 μM FUdR. […]
Detection of Cell Surface Calreticulin. Cell surface calreticulin was quantified by flow cytometry. […] Cells were counted and 300,000 cells were washed in staining buffer and incubated in Calreticulin (D3E6) XP Alexa Fluor 488 Conjugate antibody (Cell Signaling) or IgG antibody (negative control antibody) on ice for 40 minutes. […] The IgG isotype control stained sample was used to correctly identify the positively stained population in which median fluorescence intensity was determined. Median fluorescence intensity values were exported and analyzed in Microsoft Excel and GraphPad Prism 6. […]

cytoplasmic dsDNA = test: Cytoplasmic dsDNA by fluorescence microscopy; details: 12.5 μM Compound A, 1 μM FUdR; 24 hours
Description: Experimental Overview. Aberrant host DNA metabolism as a result of failed cell division or genotoxic stress leads to the release of nuclear DNA into the cytoplasm and is a well-known damage-associated molecular pattern. The subsequent detection of cytoplasmic double-stranded DNA (dsDNA) by pattern recognition receptors triggers a variety of innate immune signaling and biological responses. HCT116 colon and PANC-1 pancreatic carcinoma cells were seeded on coverslips and treated with vehicle control (DMSO), 12.5 μM Compound A, 1 μM FUdR, or the combination of 12.5 μM Compound A and 1 μM FUdR for 24 hours. At 24 hours post-treatment cells were fixed and stained with an anti-dsDNA (double-stranded DNA) antibody and the nuclear stain DAPI. Immunofluorescence was detected and images acquired by fluorescence microscopy to quantify levels of dsDNA in the cytoplasm.
Cell lines, Drug Treatments and Fluorescence Microscopy. HCT116 colon and PANC-1 pancreatic carcinoma cells (5×10^4) were seeded onto glass coverslips within 24-well plates in relevant media. The following day, seeding media was removed and replaced with drug-containing media and incubated for 24 hours. At 24 […] hours post-treatment cells were fixed and processed. Briefly, cell membranes were permeabilised, incubated with FITC-conjugated dsDNA marker antibody (HYB331-01) from Santa Cruz Biotechnology, sc-58749 (1:500 dilution) and mounted onto slides with ProLong Gold antifade with DAPI (Invitrogen P36931). Images were acquired on a Nikon Fluorescent Microscope. Exposure time was selected for FITC using negative and positive controls and kept constant throughout image acquisition. Images were analyzed using ImageJ software. Cell nuclei were identified using DAPI staining. Intensity of cytoplasmic dsDNA staining was established by quantifying the intensity of the staining in the immediate area surrounding the nucleus. Software settings: Gaps to ring=3 and Ring size=25 (FIG. 16).

| SMILES | total PD-L1 expression, all cell lines (PD-L1 [1]; MeWo, MCF-7, HCT116, H460, PANC-1, 12 and 24 hours) | increase in cell-surface PD-L1 expression compared to control, MCF-7 cells (PD-L1 [2]) | increase in cell-surface PD-L1 expression compared to control, PANC-1 cells (PD-L1 [2]) | increase in concentration of HMGB1 in cell culture media compared to control, HCT116 cells (HMGB1) | increase in concentration of HMGB1 in cell culture media compared to control, JU77 cells (HMGB1) | increase in cell surface expression of calreticulin compared to control, PANC1 cells (calreticulin) | increase in mean relative cytoplasmic DNA compared to vehicle-treated control, HCT116 cells (cytoplasmic dsDNA) | increase in mean relative cytoplasmic DNA compared to vehicle-treated control, PANC-1 cells (cytoplasmic dsDNA) [%] | total PD-L1 expression in HCT116, MCF-7, PANC-1 and Mewo cell lines (PD-L1 [1]; 1 μM FUdR, 12 and 24 hours, compared to control) | total PD-L1 expression in H460 cell line (PD-L1 [1]; PD-L1 high at baseline, 1 μM FUdR) |
| --- | --- | --- | --- | --- | --- | --- | --- | --- | --- | --- |
| C[C@@H](NS(=O)(=O)CCCCCN1CC(=O)NC1=O)c1ccc(F)c(OCC2CC2)c1 [Compound A] | unchanged | No significant difference | the same as vehicle control cells | no significant difference | no significant difference | no significant difference | no statistically significant difference | 74 | – | – |
| O=c1[nH]c(=O)n([C@H]2C[C@H](O)[C@@H](CO)O2)cc1F [FUdR] | – | 4.7 fold | ~10 fold | no significant difference | no significant difference | no significant difference | no statistically significant difference | 56 | significant increase | did not induce |
| COc1cccc2c1C(=O)c1c(O)c3c(c(O)c1C2=O)C[C@@](O)(C(=O)CO)C[C@@H]3O[C@H]1C[C@H](N)[C@H](O)[C@H](C)O1 [doxorubicin] | – | – | – | 213% | failed to elicit any significant increase | 450% | – | – | – | – |

Source: patent publication US20230263773A1, “COMBINATION THERAPY WITH DEOXYURIDINE TRIPHOSPHATASE INHIBITORS” (CV6 Therapeutics (NI) Limited, priority 2020, published 2023)
